According to the supplement of paper PMC10331698:
± gives the standard deviation of the averaged measurements.

Columns and labels:
Experiment in all cases: level (log10 ratio to DMSO vehicle control); higher = higher biomarker level / cell amount than vehicle control
[1] = compound: O=S(=O)(Cl)C(F)(F)C(F)(F)C(F)(F)C(F)(F)C(F)(F)C(F)(F)C(F)(F)C(F)(F)F [Perfluoro-1-octanesulfonyl chloride]; conditions: in DMSO
Protocol: (§1)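 BioMAP Diversity Plus panel of 12 human primary cell co-culture systems (3C, 4H, LPS, SAg, BT, BF4T, BE3C, CASM3C, HDF3CGF, KF3CT, MyoF, Mphg). Compounds were added 1 h before stimulation and left for 24 h (MyoF 48 h; BT 72 h for soluble read-outs or 6 d for IgG). Biomarkers were read by ELISA, cytotoxicity by SRB, PBMC viability and proliferation by Alamar Blue. Each well value was divided by the mean of 8 DMSO control wells on the same plate and log10 transformed; duplicate blinded samples were tested at 4 concentrations.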

Nonafluoropentanamide = compound: NC(=O)C(F)(F)C(F)(F)C(F)(F)C(F)(F)F [Nonafluoropentanamide]; conditions: in DMSO
Protocol: as §1

[2] = compound: O=C(O)C(F)(F)C(F)(F)C(F)(F)C(F)(F)C(F)(F)C(F)(F)C(F)(F)C(F)(F)C(F)(F)C(F)F [11-H-Perfluoroundecanoic acid]; conditions: in DMSO
Protocol: as §1

[3] = compound: NS(=O)(=O)C(F)(F)C(F)(F)C(F)(F)C(F)(F)C(F)(F)C(F)(F)F [Perfluorohexanesulfonamide]; conditions: in DMSO
Protocol: as §1

[4] = compound: O=S(=O)(F)C(F)(F)C(F)(F)C(F)(F)C(F)(F)C(F)(F)C(F)(F)C(F)(F)C(F)(F)F [Perfluorooctanesulfonyl fluoride]; conditions: in DMSO
Protocol: as §1

[5] = compound: NC(=O)C(F)(F)C(F)(F)C(F)(F)C(F)F; conditions: in DMSO
Protocol: as §1

Hexafluoroamylene glycol = compound: OCC(F)(F)C(F)(F)C(F)(F)CO [Hexafluoroamylene glycol]; conditions: in DMSO
Protocol: as §1

[6] = compound: O=S(=O)(O)C(F)(F)C(F)(F)C(F)(F)C(F)(F)C(F)(F)C(F)(F)C(F)(F)C(F)(F)C(F)(F)C(F)(F)F [Sodium perfluorodecanesulfonate]; conditions: in DMSO
Protocol: as §1

Octafluoroadipamide = compound: NC(=O)C(F)(F)C(F)(F)C(F)(F)C(F)(F)C(N)=O [Octafluoroadipamide]; conditions: in DMSO
Protocol: as §1

[7] = compound: C=CC(=O)OCC(F)(F)C(F)(F)C(F)(F)COC(=O)C=C [1H,1H,5H,5H-Perfluoro-1,5-pentanediol diacrylate]; conditions: 6700 nM; in DMSO
Protocol: as §1

[8] = compound: O=C(O)C=CC(F)(C(F)(F)F)C(F)(F)F [3-(Perfluoroisopropyl)-2-propenoic acid]; conditions: in DMSO
Protocol: as §1

[9] = compound: FC(F)(F)C(F)(F)C(F)(F)C(F)(F)C(F)(F)C(F)(F)C(F)(F)I [1-Iodopentadecafluoroheptane]; conditions: in DMSO
Protocol: as §1

[10] = compound: COC(=O)C(F)(F)C(F)(F)OC(F)(C(F)(F)F)C(F)(F)OC(F)=C(F)F [Methyl perfluoro(3-(1-ethenyloxypropan-2-yloxy)propanoate)]; conditions: in DMSO
Protocol: as §1

[11] = compound: C=C(C)C(=O)OCCC(F)(F)C(F)(F)C(F)(F)C(F)(F)C(F)(F)C(F)(F)F [6:2 Fluorotelomer methacrylate]; conditions: in DMSO
Protocol: as §1

[12] = compound: O=S(=O)(O)CCC(F)(F)C(F)(F)C(F)(F)C(F)(F)C(F)(F)C(F)(F)F [6:2 Fluorotelomer sulfonic acid]; conditions: in DMSO
Protocol: as §1

Heptafluorobutyl iodide = compound: FC(F)(F)C(F)(F)C(F)(F)CI [Heptafluorobutyl iodide]; conditions: in DMSO
Protocol: as §1

[13] = compound: FC(F)(F)C(F)(F)CNCC(F)(F)C(F)(F)F [Bis(1H,1H-perfluoropropyl)amine]; conditions: in DMSO
Protocol: as §1

[14] = compound: FC(F)(F)C(F)(F)C(F)(F)C(F)(F)C(F)(F)C(F)(F)CC1CO1 [3-(Perfluorohexyl)-1,2-epoxypropane]; conditions: in DMSO
Protocol: as §1

[15] = compound: FC(F)(F)C(F)(F)C(F)(F)CC1CO1 [1H,1H-Heptafluorobutyl epoxide]; conditions: in DMSO
Protocol: as §1

In the case of MyoF:MMP-1, the “level (log10)” value ([1]; 6700 nM) is reported as -0.013 ± 0.017, the “level (log10)” value ([1]; 20000 nM) is reported as -0.0095 ± 0.0092 and the “level (log10)” value ([1]; 60000 nM) is reported as 0.0705 ± 0.061. The “level (log10)” value (Nonafluoropentanamide; 6700 nM) was -0.035 ± 0.037, the “level (log10)” value (Nonafluoropentanamide; 20000 nM) was -0.02 ± 0.052 and the “level (log10)” value (Nonafluoropentanamide; 60000 nM) was -0.0055 ± 0.015. For the same test system, the “level (log10)” value ([2]; 6700 nM) was -0.076 ± 0.021, the “level (log10)” value ([2]; 20000 nM) was -0.027 ± 0.04 and the “level (log10)” value ([3]; 6700 nM) was -0.0285 ± 0.016. The “level (log10)” value ([3]; 20000 nM) was -0.0215 ± 0.0035, the “level (log10)” value ([3]; 60000 nM) was 0.0495 ± 0.025 and the “level (log10)” value ([4]; 6700 nM) was -0.0275 ± 0.013. The “level (log10)” value ([4]; 20000 nM) was -0.011 ± 0.0085, the “level (log10)” value ([4]; 60000 nM) was -0.007 ± 0.047 and the “level (log10)” value ([5]; 6700 nM) was -0.018 ± 0.038. For the same test system, the “level (log10)” value ([5]; 20000 nM) was -0.034 ± 0.02, the “level (log10)” value ([5]; 60000 nM) was 0.014 ± 0.028 and the “level (log10)” value (Hexafluoroamylene glycol; 6700 nM) was -0.0245 ± 0.011. For the same test system, the “level (log10)” value (Hexafluoroamylene glycol; 20000 nM) was -0.0525 ± 0.019, the “level (log10)” value (Hexafluoroamylene glycol; 60000 nM) was -0.0115 ± 0.0092 and the “level (log10)” value ([6]; 1500 nM) was 0.038 ± 0.1. The “level (log10)” value ([6]; 4400 nM) was -0.022 ± 0.055, the “level (log10)” value ([6]; 13000 nM) was -0.012 ± 0.02 and the “level (log10)” value ([6]; 40000 nM) was 0.0165 ± 0.064. The “level (log10)” value (Octafluoroadipamide; 6700 nM) was 0.0115 ± 0.036, the “level (log10)” value (Octafluoroadipamide; 20000 nM) was -0.0085 ± 0.0078 and the “level (log10)” value (Octafluoroadipamide; 60000 nM) was 0.0325 ± 0.079. For the same test system, the “level (log10)” value [7] was 0.206 ± 0.0028, the “level (log10)” value ([8]; 6700 nM) was -0.0205 ± 0.021 and the “level (log10)” value ([8]; 20000 nM) was -0.031 ± 0.0014. For the same test system, the “level (log10)” value ([8]; 60000 nM) was 0.006 ± 0.068, the “level (log10)” value ([9]; 6700 nM) was 0.145 ± 0.045 and the “level (log10)” value ([9]; 20000 nM) was 0.547 ± 0.018. For the same test system, the “level (log10)” value ([10]; 6700 nM) was 0.021 ± 0.035, the “level (log10)” value ([10]; 20000 nM) was 0.111 ± 0.084 and the “level (log10)” value ([11]; 6700 nM) was 0.043 ± 0.0042. For the same test system, the “level (log10)” value ([11]; 20000 nM) was 0.045 ± 0.04, the “level (log10)” value ([11]; 60000 nM) was 0.018 ± 0.038 and the “level (log10)” value ([12]; 6700 nM) was -0.018 ± 0.021. The “level (log10)” value ([12]; 20000 nM) was -0.058 ± 0.0042, the “level (log10)” value ([12]; 60000 nM) was -0.0145 ± 0.047 and the “level (log10)” value (Heptafluorobutyl iodide; 6700 nM) was -0.022 ± 0.0099. For the same test system, the “level (log10)” value (Heptafluorobutyl iodide; 20000 nM) was -0.0545 ± 0.0078, the “level (log10)” value (Heptafluorobutyl iodide; 60000 nM) was -0.0125 ± 0.039 and the “level (log10)” value ([13]; 6700 nM) was -0.0065 ± 0.011. For the same test system, the “level (log10)” value ([13]; 20000 nM) was -0.01 ± 0.021, the “level (log10)” value ([13]; 60000 nM) was 0.0245 ± 0.08 and the “level (log10)” value ([14]; 6700 nM) was -0.019 ± 0.0085. The “level (log10)” value ([14]; 20000 nM) was -0.02 ± 0.017, the “level (log10)” value ([14]; 60000 nM) was 0.017 ± 0.055 and the “level (log10)” value ([15]; 6700 nM) was 0.01 ± 0.013. For the same test system, the “level (log10)” value ([15]; 20000 nM) was -0.013 ± 0.051 and the “level (log10)” value ([15]; 60000 nM) was 0.0455 ± 0.1.

For 3C:HLA-DR, the “level (log10)” value ([1]; 6700 nM) was -0.0285 ± 0.0092, the “level (log10)” value ([1]; 20000 nM) was -0.013 ± 0.011 and the “level (log10)” value ([1]; 60000 nM) was -0.0255 ± 0.056. For the same test system, the “level (log10)” value (Nonafluoropentanamide; 6700 nM) was -0.0095 ± 0.054, the “level (log10)” value (Nonafluoropentanamide; 20000 nM) was -0.007 ± 0.0099 and the “level (log10)” value (Nonafluoropentanamide; 60000 nM) was 0.003 ± 0.0014. The “level (log10)” value ([2]; 6700 nM) was 0.0055 ± 0.039, the “level (log10)” value ([2]; 20000 nM) was -0.001 ± 0.062 and the “level (log10)” value ([3]; 6700 nM) was -0.017 ± 0.0014. For the same test system, the “level (log10)” value ([3]; 20000 nM) was -0.0555 ± 0.00071, the “level (log10)” value ([3]; 60000 nM) was -0.125 ± 0.011 and the “level (log10)” value ([4]; 6700 nM) was -0.0045 ± 0.00071. For the same test system, the “level (log10)” value ([4]; 20000 nM) was -0.004 ± 0.0028, the “level (log10)” value ([4]; 60000 nM) was -0.003 ± 0.011 and the “level (log10)” value ([5]; 6700 nM) was -0.006 ± 0.02. For the same test system, the “level (log10)” value ([5]; 20000 nM) was -0.002 ± 0.016, the “level (log10)” value ([5]; 60000 nM) was -0.005 ± 0.014 and the “level (log10)” value (Hexafluoroamylene glycol; 6700 nM) was -0.0225 ± 0.0064. The “level (log10)” value (Hexafluoroamylene glycol; 20000 nM) was -0.0205 ± 0.00071, the “level (log10)” value (Hexafluoroamylene glycol; 60000 nM) was -0.015 ± 0.0042 and the “level (log10)” value ([6]; 1500 nM) was -0.011 ± 0.011. The “level (log10)” value ([6]; 4400 nM) was -0.021 ± 0.02, the “level (log10)” value ([6]; 13000 nM) was -0.018 ± 0.0085 and the “level (log10)” value ([6]; 40000 nM) was -0.0615 ± 0.016. For the same test system, the “level (log10)” value (Octafluoroadipamide; 6700 nM) was -0.0085 ± 0.023, the “level (log10)” value (Octafluoroadipamide; 20000 nM) was 0.0055 ± 0.0021 and the “level (log10)” value (Octafluoroadipamide; 60000 nM) was 0.024 ± 0.014. For the same test system, the “level (log10)” value [7] was -0.092 ± 0.078, the “level (log10)” value ([8]; 6700 nM) was 0.0095 ± 0.005 and the “level (log10)” value ([8]; 20000 nM) was -0.0135 ± 0.022. For the same test system, the “level (log10)” value ([8]; 60000 nM) was -0.003 ± 0.028, the “level (log10)” value ([9]; 6700 nM) was -0.019 ± 0.0057 and the “level (log10)” value ([9]; 20000 nM) was -0.0075 ± 0.015. The “level (log10)” value ([10]; 6700 nM) was 0.002 ± 0.0014, the “level (log10)” value ([10]; 20000 nM) was 0.0075 ± 0.0078 and the “level (log10)” value ([11]; 6700 nM) was -0.0015 ± 0.0092. The “level (log10)” value ([11]; 20000 nM) was -0.007 ± 0.0071, the “level (log10)” value ([11]; 60000 nM) was -0.005 ± 0.0099 and the “level (log10)” value ([12]; 6700 nM) was -0.0075 ± 0.025. For the same test system, the “level (log10)” value ([12]; 20000 nM) was -0.0145 ± 0.0078, the “level (log10)” value ([12]; 60000 nM) was -0.0065 ± 0.0035 and the “level (log10)” value (Heptafluorobutyl iodide; 6700 nM) was -0.0255 ± 0.013. The “level (log10)” value (Heptafluorobutyl iodide; 20000 nM) was -0.0125 ± 0.016, the “level (log10)” value (Heptafluorobutyl iodide; 60000 nM) was -0.0045 ± 0.013 and the “level (log10)” value ([13]; 6700 nM) was 0.006 ± 0.0028. For the same test system, the “level (log10)” value ([13]; 20000 nM) was 0.0005 ± 0.021, the “level (log10)” value ([13]; 60000 nM) was 0.0145 ± 0.03 and the “level (log10)” value ([14]; 6700 nM) was -0.0005 ± 0.0035. For the same test system, the “level (log10)” value ([14]; 20000 nM) was -0.006 ± 0.016, the “level (log10)” value ([14]; 60000 nM) was 0.0025 ± 0.016 and the “level (log10)” value ([15]; 6700 nM) was 0.017. For the same test system, the “level (log10)” value ([15]; 20000 nM) was 0.002 and the “level (log10)” value ([15]; 60000 nM) was 0.011 ± 0.0042.
